How the values were obtained:
[1] = biological target: recombinant bovine CA-II enzyme (bCAII) (Bos taurus, UniProt P00921); assay: Fluorescence-based dansylamide (DNSA) displacement assay on carbonic anhydrase catalytic site; conditions: for KD for bCAII, times lower than corresponding reference compound bearing the same cyanine dye: compound 1 vs Reference 2, compound 2 vs Reference 3
[2] = Optical characterization (excitation/emission maxima, molar extinction coefficient); assay type: physicochemical; conditions: for Max Em (nm, PBS pH 7.4) / Max Em (nm, Seronorm): emission maximum; for Max Em (nm, Seronorm) / Max Ex (nm, Seronorm): Seronorm control serum; for Max Ex (nm, PBS pH 7.4) / Max Ex (nm, Seronorm): excitation maximum
Protocol: A dual-beam UV-VIS spectrophotometer (Lambda 40, Perkin Elmer) was used to determine the absorbance (Abs) of the compounds of the invention. Emission/excitation (Em/Ex) spectra were carried out on a spectrofluorometer (FluoroLog-3 1IHR-320, Horiba Jobin Yvon) equipped with an F-3018 integrating sphere accessory. The measurements were performed using an excitation wavelength at maximum absorbance of different dyes, and the sample was excited with a 450 W Xenon light Source. Detection was performed by photomultiplier tubes (PMT-NIR) cooled detector or by TBX-04 detector. Dye solutions were carefully prepared to have an absorbance lower than 0.1 (optical densities) to minimize re-absorption phenomena.
The compounds of the invention were characterized in terms of their optical properties in vitro in aqueous medium (i.e., water/PBS pH 7.4) and in a clinical chemistry control serum (Seronorm, Sero SA), mimicking the chemical composition and optical properties of human serum. All solutions were freshly prepared. In particular, the compounds of the invention are characterized by absorption maxima comprised in the range from about 750 nm to 780 nm.
The excitation and emission maxima in PBS and Seronorm and the molar extinction coefficient (ε) in water of representative compounds of formula (I) are shown in Table I in comparison with the known CA-IX targeting fluorescent probe named Hypoxyfluor-1 (HF-1, for instance disclosed in Bioconjugate Chem 2018, 29, 3320-3331). […] Moreover, the extinction coefficients were higher than 200,000 mM^−1 cm^−1 for all compounds.

[3] = system: HT-29 excised tumors and tissues; assay: Ex vivo biodistribution in excised tumors and organs; set-up: species or system mice; conditions: for ex vivo TBR, times higher than respective References 2 and 3: 1 nmol/mouse, 24 hours; for Organ-to-muscle ratio, intestine (mean ± SD) / Organ-to-muscle ratio, kidney (mean ± SD) / Organ-to-muscle ratio, liver (mean ± SD) / Organ-to-muscle ratio, skin (mean ± SD) / Organ-to-muscle ratio, spleen (mean ± SD) / Organ-to-muscle ratio, stomach (mean ± SD): ex vivo, 24 hours after administration; for Organ-to-muscle ratio, intestine (mean ± SD) / Organ-to-muscle ratio, kidney (mean ± SD) / Organ-to-muscle ratio, liver (mean ± SD) / Organ-to-muscle ratio, skin (mean ± SD) / Organ-to-muscle ratio, spleen (mean ± SD) / Organ-to-muscle ratio, stomach (mean ± SD) / ex vivo TBR (mean ± SD), HT-29 tumor: 1 nmol; for ex vivo TBR (mean ± SD), HT-29 tumor: samples collected 24 hours after administration, tumor vs hind limb muscle
Protocol: The ex vivo biodistribution of the representative compounds 1 and 2 and of the reference compounds (at 1 nmol/mouse) was evaluated in HT-29 excised tumors and tissues at the end of the in vivo OI sessions 24 hours post intravenous administration. At the end of the in vivo experiment, animals were euthanized by overdose of gaseous anesthesia followed by cervical dislocation. Tumor tissue, muscle, and other organs of interest were removed for ex vivo fluorescent signal measurements. The fluorescence signal intensity was measured by the IVIS Spectrum system. Regions of interest (ROIs) were drawn around each organ and tumor using the Living Image Software (PerkinElmer) and evaluating signal intensity in the tissues (expressed as Average Radiant Efficiency). The ratio between the fluorescence signal in the organs and tumor was then calculated to assess the contrast to hind limb muscle (representing the background).

target receptor CA-IX = biological target: T1, target receptor CA-IX (Homo sapiens, UniProt Q16790); assay: Cell uptake competition with 100x excess acetazolamide; assay type: cell-based; conditions: for % uptake in presence of 100x excess acetazolamide: 1 μM, 2 hours at 37° C., residual cellular uptake; for share of cell-associated fluorescence due to non-specific cellular uptake: flow cytometry
T1 construct: endogenous in cells
Protocol: The receptor-mediated uptake, i.e. whether the uptake of the probes was mediated by binding to the target receptor CA-IX, was analyzed by performing competition experiments.

[4] = biological target: T2, human serum albumin (HSA) (Homo sapiens, UniProt P02768); assay: Binding to albumin (ultrafiltration, absorbance of filtrates); assay type: in vitro ADME; conditions: 4.76 μM probe in PBS, 10 KDa cut off ultrafiltration, 25° C.; read-out: HSA affinity (KA, M^−1) (converted)
T2 construct: purchased Sigma-Aldrich A9511
Protocol: The affinity of the probes for human serum albumin (HSA) was determined to assess the influence of structural features on their albumin binding properties. Briefly, HSA (A9511, Sigma-Aldrich) was prepared in a […] stock solution in PBS and used to obtain a series of dilutions in PBS (0, 9.52·10^−7, 4.76·10^−6, 9.52·10^−6, 1.90·10^−5, 3.81·10^−5, 5.71·10^−5, 9.52·10^−5, 1.43·10^−4, 1.90·10^−4, 2.86·10^−4, 3.81·10^−4 M), in presence of 4.76 μM of the CA-IX-targeting probe (prepared from a 50 μM stock solution in PBS), in a total volume of 0.525 mL. The samples were centrifuged (10000 g for 30 min at 25° C.) in a Microcon device (10 KDa MW cut off, Amicon Ultra-0.5 Centrifugal Filter Unit with Ultracel-10 membrane) and the absorbance measurements of the filtrates were obtained with the spectrophotometer at the maximum absorbance wavelength of the fluorophore.
Data analysis was performed by fitting the raw data, using Microsoft Excel Solver, with the equation:
where ΔA/b=Absorbance measured (b=1 cm), KRL=KA calculated by fitting, Δε·Rt are calculated by fitting, and [L]=HSA concentration. ΔA/b values were experimentally obtained by subtracting the absorbance of “0 HSA sample” to the absorbance of each other sample.

[5] = system: hypoxic HT-29 colorectal tumor, subcutaneously induced; assay: In vivo tumor optical imaging (IVIS Spectrum), tumor-to-background ratio; set-up: species or system mice; conditions: 24 hours after intravenous administration, 1 nmol/mouse, tumor vs hind limb muscle
Protocol: HT-29 cells were collected and washed once with serum-free medium. Five million HT-29 cells were suspended in 0.1 mL serum-free medium and injected subcutaneously in the right flank of 5 weeks old mice. Tumor development was followed by caliper measurement twice a week, from 7 days after inoculation. Tumor volume was calculated according to the formula: (L*W2)/2, where L and W are the maximum length and width of the tumor.
Optical Imaging experiments on HT-29 tumor bearing animals were performed after administration of Reference 1, 2 and 3, and compounds 1 and 2, all at a dose of 1 nmol/mouse in an administration volume of 0.1 mL (corresponding to about 5 mL/kg, considering a 20 g-mouse) at an injection rate of about 1 mL/min, by the IVIS Spectrum system when the tumor reached at least 200 mm^3 volume. For each group, in vivo OI experiments were performed at 0.5, 1, 2, 3, 4, 6 and 24 hours after intravenous administration of the fluorescent compounds. During imaging experiments animals were maintained under gaseous anesthesia. Regions of interest (ROIs) were drawn on the tumor and on a reference background healthy region (hind limb muscle) of the mouse for each fluorescence image at every time point to evaluate signal intensity in the tissues (expressed as Average Radiant Efficiency). The ratio between the fluorescence signal in the tumor and in the background healthy tissue (tumor-to-background ratio, TBR) was then calculated to assess the contrast.
All the compounds of the invention and the References were tested at a dose of 1 nmol/mouse.

[6] = Optical characterization (excitation/emission maxima, molar extinction coefficient); assay type: physicochemical; conditions: in water

Sequence of recombinant bovine CA-II enzyme (bCAII) (P00921 whole entry): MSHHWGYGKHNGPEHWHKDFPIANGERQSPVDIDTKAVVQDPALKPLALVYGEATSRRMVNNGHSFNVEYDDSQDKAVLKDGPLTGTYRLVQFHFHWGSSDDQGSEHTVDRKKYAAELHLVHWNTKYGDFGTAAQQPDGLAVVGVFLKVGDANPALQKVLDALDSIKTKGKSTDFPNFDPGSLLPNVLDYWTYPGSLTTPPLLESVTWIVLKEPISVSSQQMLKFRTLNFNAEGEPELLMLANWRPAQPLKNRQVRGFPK
T2 sequence (P02768 25-609): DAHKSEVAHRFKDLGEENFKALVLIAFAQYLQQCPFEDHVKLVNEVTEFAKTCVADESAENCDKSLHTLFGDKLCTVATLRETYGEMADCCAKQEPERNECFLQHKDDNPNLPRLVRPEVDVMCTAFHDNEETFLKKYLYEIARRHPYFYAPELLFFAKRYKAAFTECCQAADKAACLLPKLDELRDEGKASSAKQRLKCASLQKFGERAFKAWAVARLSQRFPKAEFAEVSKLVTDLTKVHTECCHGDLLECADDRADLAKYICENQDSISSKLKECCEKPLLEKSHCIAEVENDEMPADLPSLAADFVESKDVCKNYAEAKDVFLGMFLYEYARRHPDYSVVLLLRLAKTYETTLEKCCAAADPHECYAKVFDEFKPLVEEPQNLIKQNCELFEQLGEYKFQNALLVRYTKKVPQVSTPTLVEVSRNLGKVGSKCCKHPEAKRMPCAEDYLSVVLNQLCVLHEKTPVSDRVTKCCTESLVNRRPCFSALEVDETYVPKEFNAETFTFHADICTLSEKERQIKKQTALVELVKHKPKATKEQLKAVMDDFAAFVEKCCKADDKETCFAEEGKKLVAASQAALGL

SMILES: CC(CC[N+]1=C(/C=C/C=C/C=C/C=C2/N(CCCCCC(=O)NCCCCCCCC(=O)Nc3nnc(S(N)(=O)=O)s3)c3ccc(C(=O)NC[C@H](O)[C@@H](O)[C@H](O)[C@H](O)CO)cc3C2(C)C)C(C)(C)c2cc(C(=O)NC[C@H](O)[C@@H](O)[C@H](O)[C@H](O)CO)ccc21)S(=O)(=O)[O-] (some centres unmarked) [Compound 2]
- Kd [1]: 0.0061 ± 0.0016 µM
- KD for bCAII, times lower than corresponding reference compound bearing the same cyanine dye [1]: 5 times
- Max Em (nm, PBS pH 7.4) [2]: 788 nm
- Max Em (nm, Seronorm) [2]: 790 nm
- Max Ex (nm, PBS pH 7.4) [2]: 758 nm
- Max Ex (nm, Seronorm) [2]: 762 nm
- ex vivo TBR, times higher than respective References 2 and 3 [3]: about 1.5 times
- Organ-to-muscle ratio, intestine (mean ± SD) [3]: 1.6 ± 0.3
- Organ-to-muscle ratio, kidney (mean ± SD) [3]: 7.1 ± 1.5
- Organ-to-muscle ratio, liver (mean ± SD) [3]: 3.3 ± 0.4
- Organ-to-muscle ratio, skin (mean ± SD) [3]: 1.5 ± 0.3
- Organ-to-muscle ratio, spleen (mean ± SD) [3]: 1.0 ± 0.1
- Organ-to-muscle ratio, stomach (mean ± SD) [3]: 6.8 ± 1.3
- ex vivo TBR (mean ± SD), HT-29 tumor [3]: 23.1 ± 6.7
- % uptake in presence of 100x excess acetazolamide (target receptor CA-IX): 11.3 ± 1.7%
- share of cell-associated fluorescence due to non-specific cellular uptake (target receptor CA-IX): about 10%
- Kd [4]: 105 µM
- in vivo TBR (mean ± SD) [5]: 10.1 ± 3.1
- molar extinction coefficient (ε) [6]: 250000 M⁻¹ cm⁻¹

SMILES: CC1(C)C(/C=C/C2=C(Oc3ccc(S(=O)(=O)O)cc3)C(=C/C=C3/N(CCCCCC(=O)NCCCCCCCC(=O)Nc4nnc(S(N)(=O)=O)s4)c4ccc(C(=O)NC[C@H](O)[C@@H](O)[C@H](O)[C@H](O)CO)cc4C3(C)C)/CCC2)=[N+](CCCCS(=O)(=O)[O-])c2ccc(C(=O)NC[C@H](O)[C@@H](O)[C@H](O)[C@H](O)CO)cc21 [Compound 1]
- Kd [1]: 0.0135 ± 0.0016 µM
- KD for bCAII, times lower than corresponding reference compound bearing the same cyanine dye [1]: 4 times
- Max Em (nm, PBS pH 7.4) [2]: 806 nm
- Max Em (nm, Seronorm) [2]: 812 nm
- Max Ex (nm, PBS pH 7.4) [2]: 782 nm
- Max Ex (nm, Seronorm) [2]: 792 nm
- ex vivo TBR, times higher than respective References 2 and 3 [3]: about 1.5 times
- Organ-to-muscle ratio, intestine (mean ± SD) [3]: 1.8 ± 0.4
- Organ-to-muscle ratio, kidney (mean ± SD) [3]: 6.0 ± 1.1
- Organ-to-muscle ratio, liver (mean ± SD) [3]: 4.2 ± 0.7
- Organ-to-muscle ratio, skin (mean ± SD) [3]: 1.2 ± 0.1
- Organ-to-muscle ratio, spleen (mean ± SD) [3]: 0.9 ± 0.2
- Organ-to-muscle ratio, stomach (mean ± SD) [3]: 5.4 ± 0.8
- ex vivo TBR (mean ± SD), HT-29 tumor [3]: 13.4 ± 2.2
- % uptake in presence of 100x excess acetazolamide (target receptor CA-IX): 6.5 ± 2.2%
- share of cell-associated fluorescence due to non-specific cellular uptake (target receptor CA-IX): about 10%
- Kd [4]: 80 µM
- in vivo TBR (mean ± SD) [5]: 5.2 ± 1.0
- molar extinction coefficient (ε) [6]: 250000 M⁻¹ cm⁻¹

From patent US20260009799A1, “CA-IX TARGETING FLUORESCENT PROBES” (BRACCO IMAGING S.P.A., priority 2022, published 2026)
